Measured values: ChEMBL document CHEMBL3751785, “Development and structural analysis of adenosine site binding tankyrase inhibitors” (Bioorg Med Chem Lett, 2016)

Experiments:
[1] = target: T1, Protein mono-ADP-ribosyltransferase PARP12 (Homo sapiens, UniProt Q9H0J9); test: Inhibition of human ARTD12 by fluorescence analysis
T1 sequence (Q9H0J9 whole entry): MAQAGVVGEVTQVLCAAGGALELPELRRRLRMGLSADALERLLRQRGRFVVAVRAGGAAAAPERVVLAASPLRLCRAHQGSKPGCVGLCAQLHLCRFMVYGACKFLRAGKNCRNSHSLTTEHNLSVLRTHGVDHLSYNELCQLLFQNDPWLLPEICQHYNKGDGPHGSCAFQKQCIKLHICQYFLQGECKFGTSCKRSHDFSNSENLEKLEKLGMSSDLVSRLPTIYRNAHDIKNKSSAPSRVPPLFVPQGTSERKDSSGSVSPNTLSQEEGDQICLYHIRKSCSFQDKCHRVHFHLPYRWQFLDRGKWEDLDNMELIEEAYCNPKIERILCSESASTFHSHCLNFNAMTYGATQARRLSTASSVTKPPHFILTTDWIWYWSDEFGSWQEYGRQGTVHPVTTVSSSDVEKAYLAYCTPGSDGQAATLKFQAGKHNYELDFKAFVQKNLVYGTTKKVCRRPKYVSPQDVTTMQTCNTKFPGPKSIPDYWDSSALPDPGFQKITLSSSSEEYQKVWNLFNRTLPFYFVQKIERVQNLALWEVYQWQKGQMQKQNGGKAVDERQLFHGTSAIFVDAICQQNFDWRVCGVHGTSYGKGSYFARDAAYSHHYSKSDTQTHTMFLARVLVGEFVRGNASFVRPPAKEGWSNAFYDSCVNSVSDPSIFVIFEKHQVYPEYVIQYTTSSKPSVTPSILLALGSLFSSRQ

Tankyrase 1/2 = target: T2, Tankyrase 1/2 (Homo sapiens, UniProt Q9H2K2+O95271); test: Inhibition of tankyrase in WNT3a-stimulated human HEK293 cells by luciferase reporter gene assay; format: cell-based
T2 sequence (Q9H2K2 whole entry): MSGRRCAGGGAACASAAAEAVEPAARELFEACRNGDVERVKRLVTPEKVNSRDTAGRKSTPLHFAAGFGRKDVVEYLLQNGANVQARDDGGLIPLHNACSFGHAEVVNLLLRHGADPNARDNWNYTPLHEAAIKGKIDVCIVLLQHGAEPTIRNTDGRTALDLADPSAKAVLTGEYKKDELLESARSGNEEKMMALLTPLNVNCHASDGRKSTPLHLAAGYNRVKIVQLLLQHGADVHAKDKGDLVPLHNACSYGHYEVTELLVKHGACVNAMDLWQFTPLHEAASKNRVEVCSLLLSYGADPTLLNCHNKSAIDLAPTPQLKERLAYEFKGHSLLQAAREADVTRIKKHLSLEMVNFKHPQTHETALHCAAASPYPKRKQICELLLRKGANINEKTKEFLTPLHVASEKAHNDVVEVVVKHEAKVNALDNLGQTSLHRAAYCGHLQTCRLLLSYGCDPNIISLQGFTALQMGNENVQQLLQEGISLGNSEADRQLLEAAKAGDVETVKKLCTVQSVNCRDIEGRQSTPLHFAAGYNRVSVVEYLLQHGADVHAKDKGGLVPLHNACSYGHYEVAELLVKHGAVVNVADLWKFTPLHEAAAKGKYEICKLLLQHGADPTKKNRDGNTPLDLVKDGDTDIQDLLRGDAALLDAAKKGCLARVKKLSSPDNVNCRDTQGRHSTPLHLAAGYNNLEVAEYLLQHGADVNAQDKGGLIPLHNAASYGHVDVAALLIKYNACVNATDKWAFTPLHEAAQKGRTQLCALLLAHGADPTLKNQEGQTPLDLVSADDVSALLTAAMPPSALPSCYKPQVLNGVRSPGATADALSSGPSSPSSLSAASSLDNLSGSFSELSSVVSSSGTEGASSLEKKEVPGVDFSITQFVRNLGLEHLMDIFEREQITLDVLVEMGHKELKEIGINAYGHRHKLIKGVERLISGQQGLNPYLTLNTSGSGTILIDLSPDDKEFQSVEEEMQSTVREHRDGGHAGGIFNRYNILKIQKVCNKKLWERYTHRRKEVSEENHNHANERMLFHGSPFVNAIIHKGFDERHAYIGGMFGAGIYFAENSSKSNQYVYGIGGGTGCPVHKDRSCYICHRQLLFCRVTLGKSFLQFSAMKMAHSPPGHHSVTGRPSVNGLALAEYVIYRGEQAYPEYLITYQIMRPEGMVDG
T2 sequence (O95271 whole entry): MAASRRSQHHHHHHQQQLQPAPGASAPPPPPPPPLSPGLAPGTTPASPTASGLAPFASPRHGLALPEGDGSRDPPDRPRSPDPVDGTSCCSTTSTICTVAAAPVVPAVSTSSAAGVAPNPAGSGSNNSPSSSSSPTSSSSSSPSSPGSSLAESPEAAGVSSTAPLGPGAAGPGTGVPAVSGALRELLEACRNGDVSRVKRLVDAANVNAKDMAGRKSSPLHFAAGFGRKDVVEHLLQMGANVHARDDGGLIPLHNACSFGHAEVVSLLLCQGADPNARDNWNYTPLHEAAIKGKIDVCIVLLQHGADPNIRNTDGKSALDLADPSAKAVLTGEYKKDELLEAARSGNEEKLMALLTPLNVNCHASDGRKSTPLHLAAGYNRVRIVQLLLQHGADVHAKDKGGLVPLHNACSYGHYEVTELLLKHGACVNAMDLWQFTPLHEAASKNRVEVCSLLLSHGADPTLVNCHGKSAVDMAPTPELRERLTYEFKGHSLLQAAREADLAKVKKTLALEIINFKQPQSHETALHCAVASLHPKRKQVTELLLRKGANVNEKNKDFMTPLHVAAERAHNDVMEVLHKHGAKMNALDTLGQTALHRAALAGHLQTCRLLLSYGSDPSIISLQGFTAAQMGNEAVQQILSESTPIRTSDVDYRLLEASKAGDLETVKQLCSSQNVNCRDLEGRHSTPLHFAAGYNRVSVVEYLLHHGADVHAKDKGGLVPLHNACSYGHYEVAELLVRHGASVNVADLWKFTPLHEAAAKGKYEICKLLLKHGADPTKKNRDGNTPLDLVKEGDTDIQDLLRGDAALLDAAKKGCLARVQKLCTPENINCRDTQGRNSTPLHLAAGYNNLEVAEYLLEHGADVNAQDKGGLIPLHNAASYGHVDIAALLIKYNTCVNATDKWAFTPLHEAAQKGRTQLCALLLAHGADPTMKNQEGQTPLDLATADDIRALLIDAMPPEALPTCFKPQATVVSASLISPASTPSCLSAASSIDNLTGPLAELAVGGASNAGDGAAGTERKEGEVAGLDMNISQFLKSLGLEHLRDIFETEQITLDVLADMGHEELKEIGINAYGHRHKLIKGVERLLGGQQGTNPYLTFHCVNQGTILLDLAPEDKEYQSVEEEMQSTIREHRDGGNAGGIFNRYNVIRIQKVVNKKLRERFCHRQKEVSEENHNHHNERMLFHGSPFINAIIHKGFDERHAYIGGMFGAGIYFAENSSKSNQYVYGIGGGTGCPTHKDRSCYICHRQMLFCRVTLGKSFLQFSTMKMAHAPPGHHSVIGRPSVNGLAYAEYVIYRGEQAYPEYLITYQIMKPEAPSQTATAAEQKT

`COc1ccc(C2(CNC(=O)c3ccc(NC(=O)c4ccco4)cc3Cl)CCOCC2)cc1` was tested. Which IC50 [1] did it give?
The IC50 was greater than 10 µM.

And the IC50 (Tankyrase 1/2)?
Its IC50 is 0.36 µM.
